Measured values taken from PMC7066176, “Crystal structure of a lipin/Pah phosphatidic acid phosphatase” (Nature Communications, 2020).

Target: T1, Tt Pah2 (Tetrahymena thermophila, UniProt I7MFJ3)
T1 construct: gene TTHERM_00215970; residues 1-321 (lacks 14 C-terminal residues of 335), codon-optimised, E. coli; ppSUMO His-SUMO tag cleaved by ULP-1, or pET28 N-terminal His tag kept
T1 sequence (I7MFJ3 1-321): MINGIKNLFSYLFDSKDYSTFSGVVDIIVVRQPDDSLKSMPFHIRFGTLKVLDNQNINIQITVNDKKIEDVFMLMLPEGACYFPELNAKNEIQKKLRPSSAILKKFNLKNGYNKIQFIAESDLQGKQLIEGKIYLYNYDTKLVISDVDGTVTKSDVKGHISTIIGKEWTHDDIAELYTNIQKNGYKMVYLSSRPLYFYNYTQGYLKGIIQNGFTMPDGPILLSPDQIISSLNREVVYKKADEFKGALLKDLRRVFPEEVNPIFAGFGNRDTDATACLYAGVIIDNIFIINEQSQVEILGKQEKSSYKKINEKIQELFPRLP
Test: liposome sedimentation, SDS-PAGE
Format: binding
Conditions: 20 mol% POPA liposomes with 40 mol% POPE and POPC, pH 7.5, room temperature; preferential over neutral and POPS liposomes

Structure (SMILES): CCCCCCCC/C=C\CCCCCCCC(=O)O[C@H](COC(=O)CCCCCCCCCCCCCCC)COP(=O)(O)O [POPA]
- liposome sedimentation, SDS-PAGE: Tt Pah2 also preferentially interacted with PA-containing liposomes, in comparison with neutral or anionic PS-enriched
